Data: patent US10253017B2, “Derivatives of 2-aminopyridine as adenosine A2B receptor antagonists and ligands of the melatonin MT3 receptors” (PALOBIOFARMA, S.L., priority 2015, dated 2019)

Columns and labels:
MT3 melatonin receptor = MT3 melatonin receptor (Mesocricetus auratus, UniProt A0ABM2YAB8); experiment: Binding to melatonin MT3 binding sites ([125I]2-iodomelatonin, hamster brain membranes); details: [125I]2-iodomelatonin radioligand
Method: Study of Binding to Melatonin MT3 Binding Sites
The experiment of binding to MT3 sites was carried out on hamster brain membranes using [^125I]2-iodomelatonin as radioligand in accordance with the protocol described by Pickering, D. S et al. (Pickering, D. S et al, 1990, Pharmacological characterization of melatonin binding sites in Syrian hamster hypothalamus, Eur J Pharmacol. 1990 Jan. 3; 175(1):71-7).

adenosine A2B receptor = adenosine A2B receptor (Homo sapiens (Human), UniProt P29275); experiment: Adenosine A2B receptor subtype competition radioligand binding assay ([3H]DPCPX); details: human recombinant receptor (HEK-293 cells), [3H]DPCPX radioligand; read-out: hA2B, Ki
Description: Adenosine A2B Receptor Subtype Competition Radioligand Binding Assay

adenosine A2A receptor = adenosine A2A receptor (Homo sapiens (Human), UniProt P29274); experiment: Adenosine A2A receptor binding (hA2A Ki)
Chain of adenosine A2A receptor (P29274 whole entry): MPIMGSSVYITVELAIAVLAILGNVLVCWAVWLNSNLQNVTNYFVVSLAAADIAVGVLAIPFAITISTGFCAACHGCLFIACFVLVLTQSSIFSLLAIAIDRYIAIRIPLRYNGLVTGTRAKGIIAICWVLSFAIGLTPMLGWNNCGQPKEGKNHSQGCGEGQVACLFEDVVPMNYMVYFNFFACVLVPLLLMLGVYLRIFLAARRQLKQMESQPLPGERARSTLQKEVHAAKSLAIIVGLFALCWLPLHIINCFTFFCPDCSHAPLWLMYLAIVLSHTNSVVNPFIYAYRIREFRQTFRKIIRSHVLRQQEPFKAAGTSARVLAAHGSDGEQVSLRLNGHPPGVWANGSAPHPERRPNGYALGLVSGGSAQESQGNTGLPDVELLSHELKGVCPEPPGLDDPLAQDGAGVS

Chain of adenosine A2B receptor (P29275 whole entry): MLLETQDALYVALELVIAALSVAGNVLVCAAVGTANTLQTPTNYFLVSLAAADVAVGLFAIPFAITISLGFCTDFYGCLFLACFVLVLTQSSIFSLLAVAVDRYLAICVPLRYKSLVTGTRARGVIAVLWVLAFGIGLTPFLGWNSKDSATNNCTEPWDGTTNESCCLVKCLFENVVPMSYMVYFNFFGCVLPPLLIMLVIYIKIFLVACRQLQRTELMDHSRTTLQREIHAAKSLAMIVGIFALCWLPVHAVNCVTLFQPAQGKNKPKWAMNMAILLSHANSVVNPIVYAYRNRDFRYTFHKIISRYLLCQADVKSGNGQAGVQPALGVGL
Chain of MT3 melatonin receptor (A0ABM2YAB8 1-231): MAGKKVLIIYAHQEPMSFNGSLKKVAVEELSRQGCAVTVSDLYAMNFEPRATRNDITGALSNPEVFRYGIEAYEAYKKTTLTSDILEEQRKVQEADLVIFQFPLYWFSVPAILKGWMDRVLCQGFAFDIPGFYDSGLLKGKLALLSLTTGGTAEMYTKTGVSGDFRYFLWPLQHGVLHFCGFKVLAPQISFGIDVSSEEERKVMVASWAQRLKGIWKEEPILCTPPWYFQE

Compound	IC50 (MT3 melatonin receptor) [µM]	Ki (adenosine A2B receptor) [µM]	Ki (adenosine A2A receptor) [µM]
Nc1nc(-c2cccnc2)c(-c2ccncc2F)cc1Cl [Example 23, 3-chloro-5-(3-fluoropyridin-4-yl)-6-(pyridin-3-yl)pyridin-2-amine]	0.098	0.0239	4.8
Nc1nc(-c2cncc(F)c2)c(-c2ccncc2F)cc1Cl [Example 27, 3-chloro-6-(5-fluoropyridin-3-yl)-5-(3-fluoropyridin-4-yl)pyridin-2-amine]	0.25	0.15	> 5
Nc1nc(-c2cccnc2)c(-c2ccncc2F)cc1Br [Example 24, 3-bromo-5-(3-fluoropyridin-4-yl)-6-(pyridin-3-yl)pyridin-2-amine]	–	0.037	> 5
Nc1nc(-c2cccnc2)c(-c2ccncc2)cc1Br [Example 22, 3-bromo-6-(pyridin-3-yl)-5-(pyridin-4-yl)pyridin-2-amine]	0.14	0.0461	0.3
Nc1ccc(-c2ccncc2F)c(-c2ccncc2)n1 [Example 11, 5-(3-fluoropyridin-4-yl)-6-(pyridin-4-yl)pyridin-2-amine]	–	0.149	> 5
Nc1nc(-c2ccncc2)c(-c2ccncc2F)cc1Br [Example 35, 3-bromo-5-(3-fluoropyridin-4-yl)-6-(pyridin-4-yl)pyridin-2-amine]	–	0.013	1.3
COc1ccc(-c2nc(N)c(Cl)cc2-c2ccncc2F)cn1 [Example 36, 3-chloro-5-(3-fluoropyridin-4-yl)-6-(6-methoxypyridin-3-yl)pyridin-2-amine]	–	0.024	> 5
Nc1nc(-c2cccnc2)c(-c2ccncc2)cc1Cl [Example 21, 3-chloro-6-(pyridin-3-yl)-5-(pyridin-4-yl)pyridin-2-amine]	0.13	0.0345	0.5
Nc1nc(-c2ccncc2)c(-c2ccncc2F)cc1Cl [Example 34, 3-chloro-5-(3-fluoropyridin-4-yl)-6-(pyridin-4-yl)pyridin-2-amine]	–	0.012	0.555
